In ChEMBL document CHEMBL1130853, “Synthesis and biological properties of new 1 beta-methylcarbapenems” (Bioorg Med Chem Lett, 1998):
Values after ≈ are worked out from the molar mass of the structure shown.

Columns and labels:
[1] = Antibacterial activity against Enterobacter cloacae 1321E; type: functional
[2] = test system: Escherichia coli; assay: microbe, parasite or virus in culture; type: functional
Description: Antibacterial activity against Escherichia coli 1507E

[3] = test system: Pseudomonas aeruginosa; assay: microbe, parasite or virus in culture; type: functional
Description: Compound was evaluated for antibacterial activity against Pseudomonas aeruginosa 1592E

[4] = test system: Pseudomonas aeruginosa; assay: microbe, parasite or virus in culture; type: functional; remark: listed apart in the source
Description: Antibacterial activity against Pseudomonas aeruginosa 1771M

[5] = test system: Salmonella typhimurium; assay: Antibacterial activity against Salmonella Typhimurium; type: functional, Salmonella enterica subsp. enterica serovar Typhimurium; settings: Salmonella enterica
[6] = test system: Staphylococcus aureus; assay: Antibacterial activity against Staphylococcus aureus SG 511; type: functional
[7] = test system: Streptococcus pyogenes; assay: Antibacterial activity against Streptococcus pyogenes 77A; type: functional
[8] = test system: Enterococcus faecium; assay: Antibacterial activity against Streptococcus faecium MD 8b; type: functional
[9] = test system: Klebsiella aerogenes; assay: Antibacterial activity against Klebsiella aerogenes 1522E; type: functional
[10] = biological target: T1, Dipeptidase 1 (Sus scrofa) (UniProt P22412); assay: Compound was evaluated for relative rate of hydrolysis to imipenem by partially purified porcine renal Dehydropeptidase-1; parameters: scale not given: the % may be the effect or the level left
T1 sequence (whole entry): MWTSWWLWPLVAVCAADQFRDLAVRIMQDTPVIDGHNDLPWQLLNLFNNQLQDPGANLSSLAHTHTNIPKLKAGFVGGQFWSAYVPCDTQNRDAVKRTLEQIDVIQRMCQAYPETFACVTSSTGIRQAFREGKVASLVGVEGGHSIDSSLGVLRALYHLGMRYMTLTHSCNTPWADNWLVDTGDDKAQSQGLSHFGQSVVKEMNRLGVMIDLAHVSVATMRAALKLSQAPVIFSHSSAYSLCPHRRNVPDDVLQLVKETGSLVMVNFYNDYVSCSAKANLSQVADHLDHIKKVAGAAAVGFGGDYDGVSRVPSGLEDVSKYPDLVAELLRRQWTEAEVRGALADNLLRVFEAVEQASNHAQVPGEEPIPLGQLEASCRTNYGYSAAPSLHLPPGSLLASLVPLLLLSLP

[11] = Time taken by the compound to reach maximum concentration.; type: ADME
[12] = test system: Escherichia coli; assay: Compound was tested for in vivo protective activity against Escherichia coli 078 at a single subcutaneous administration in mice.; type: functional; settings: sc, read-out: PD50
[13] = test system: Pseudomonas aeruginosa; assay: Compound was tested for in vivo protective activity against Pseudomonas aeruginosa 1771M at a single subcutaneous administration in mice.; type: functional; settings: sc, read-out: PD50
[14] = test system: Streptococcus pyogenes; assay: Compound was tested for in vivo protective activity against Streptococcus pyogenes 77A at a single subcutaneous administration in mice.; type: functional; settings: sc, read-out: PD50

| MIC [1] [µg/mL] | MIC [2] [µg/mL] | MIC [3] [µg/mL] | MIC [4] [µg/mL] | MIC [5] [µg/mL] | MIC [6] [µg/mL] | MIC [7] [µg/mL] | MIC [8] [µg/mL] | MIC [9] [µg/mL] | SMILES | Stability [10] [%] | Tmax [11] [min] | ED50 [12] [mg/kg] | ED50 [13] [mg/kg] | ED50 [14] [mg/kg] |
| --- | --- | --- | --- | --- | --- | --- | --- | --- | --- | --- | --- | --- | --- | --- |
| 0.025 (≈ 0.055 µM) | 0.025 (≈ 0.055 µM) | 1.56 (≈ 3.44 µM) | 0.391 (≈ 0.86 µM) | 0.049 (≈ 0.108 µM) | 0.195 (≈ 0.429 µM) | 0.007 (≈ 0.0154 µM) | 12.5 (≈ 27.5 µM) | 0.049 (≈ 0.108 µM) | C[C@@H](O)[C@H]1C(=O)N2C(C(=O)O)=C(S[C@@H]3CN[C@H](C(=O)NCCC(=O)N(C)C)C3)[C@H](C)[C@H]12 |  |  |  |  |  |
| 0.025 (≈ 0.0566 µM) | 0.025 (≈ 0.0566 µM) | 1.56 (≈ 3.54 µM) | 0.195 (≈ 0.442 µM) | 0.049 (≈ 0.111 µM) | 0.195 (≈ 0.442 µM) | 0.007 (≈ 0.0159 µM) | 12.5 (≈ 28.3 µM) | 0.049 (≈ 0.111 µM) | COC(=O)CCNC(=O)[C@@H]1C[C@H](SC2=C(C(=O)O)N3C(=O)[C@H]([C@@H](C)O)[C@H]3[C@H]2C)CN1 |  |  |  |  |  |
| 0.025 (≈ 0.0493 µM) | 0.025 (≈ 0.0493 µM) | 0.391 (≈ 0.772 µM) | 0.391 (≈ 0.772 µM) | 0.049 (≈ 0.0967 µM) | 0.195 (≈ 0.385 µM) | 0.007 (≈ 0.0138 µM) | 12.5 (≈ 24.7 µM) | 0.049 (≈ 0.0967 µM) | C[C@@H](O)[C@H]1C(=O)N2C(C(=O)O)=C(S[C@@H]3CN[C@H](C(=O)NCCS(=O)(=O)NCCO)C3)[C@H](C)[C@H]12 |  |  |  |  |  |
| 0.049 (≈ 0.115 µM) | 0.049 (≈ 0.115 µM) | 6.25 (≈ 14.6 µM) | 3.12 (≈ 7.31 µM) | 0.098 (≈ 0.229 µM) | 1.56 (≈ 3.66 µM) | 0.049 (≈ 0.115 µM) | 50 (≈ 117 µM) | 0.098 (≈ 0.229 µM) | C[C@@H](O)[C@H]1C(=O)N2C(C(=O)O)=C(S[C@@H]3CN[C@H](C(=O)NCCC(=O)O)C3)[C@H](C)[C@H]12 |  |  |  |  |  |
| 0.025 (≈ 0.0586 µM) | 0.025 (≈ 0.0586 µM) | 0.391 (≈ 0.917 µM) | 0.195 (≈ 0.457 µM) | 0.049 (≈ 0.115 µM) | 0.195 (≈ 0.457 µM) | 0.007 (≈ 0.0164 µM) | 12.5 (≈ 29.3 µM) | 0.049 (≈ 0.115 µM) | C[C@@H](O)[C@H]1C(=O)N2C(C(=O)O)=C(S[C@@H]3CN[C@H](C(=O)NCCC(N)=O)C3)[C@H](C)[C@H]12 | 2600 |  |  |  |  |
| 0.025 (≈ 0.0525 µM) | 0.025 (≈ 0.0525 µM) | 0.391 (≈ 0.82 µM) | 0.369 (≈ 0.774 µM) | 0.025 (≈ 0.0525 µM) | 0.195 (≈ 0.409 µM) | 0.013 (≈ 0.0273 µM) | 12.5 (≈ 26.2 µM) | 0.049 (≈ 0.103 µM) | CNS(=O)(=O)CCNC(=O)[C@@H]1C[C@H](SC2=C(C(=O)O)N3C(=O)[C@H]([C@@H](C)O)[C@H]3[C@H]2C)CN1 |  |  |  |  |  |

| SMILES | MIC [1] [µg/mL] | MIC [2] [µg/mL] | MIC [3] [µg/mL] | MIC [4] [µg/mL] | MIC [5] [µg/mL] | MIC [6] [µg/mL] | MIC [7] [µg/mL] | MIC [8] [µg/mL] | MIC [9] [µg/mL] | Stability [10] [%] | Tmax [11] [min] | ED50 [12] [mg/kg] | ED50 [13] [mg/kg] | ED50 [14] [mg/kg] |
| --- | --- | --- | --- | --- | --- | --- | --- | --- | --- | --- | --- | --- | --- | --- |
| C[C@@H](O)[C@H]1C(=O)N2C(C(=O)O)=C(SCCNC=N)C[C@H]12 [IMIPENEM ANHYDROUS] | 0.195 (≈ 0.651 µM) | 0.195 (≈ 0.651 µM) | 0.781 (≈ 2.61 µM) | 0.195 (≈ 0.651 µM) | 0.781 (≈ 2.61 µM) | 0.013 (≈ 0.0434 µM) | 0.004 (≈ 0.0134 µM) | 1.56 (≈ 5.22 µM) | 0.391 (≈ 1.31 µM) | 10000 |  |  |  |  |
| C[C@@H](O)[C@H]1C(=O)N2C(C(=O)O)=C(S[C@@H]3CN[C@H](C(=O)NCCS(N)(=O)=O)C3)[C@H](C)[C@H]12 | 0.025 (≈ 0.054 µM) | 0.013 (≈ 0.0281 µM) | 0.195 (≈ 0.422 µM) | 0.195 (≈ 0.422 µM) | 0.025 (≈ 0.054 µM) | 0.098 (≈ 0.212 µM) | 0.004 (≈ 0.00865 µM) | 6.25 (≈ 13.5 µM) | 0.049 (≈ 0.106 µM) | 2400 | < 19.8 | 0.47 | 2.6 | 2.31 |
